Like-named read-outs stand apart in the source and are kept apart here.
What was measured:
influenza virus (H1N1) = experiment: in vitro anti-influenza virus test in MDCK cells, MTT readout; type: cell-based
[1] = test system: neuraminidase (NA) of influenza virus; type: biochemical; conditions: for FU/min (neuraminidase enzymatic activity in presence of medicament): kit positive control 0.42 FU/min; for activity relative to that of Tamiflu: same dosage 0.5 mg/mL, ratio of FU/min values
[2] = test system: MDCK cells (Madin-Darby Canine Kidney Epithelial Cells)

In the case of `NC(=O)c1ncn([C@@H]2O[C@H](CO)[C@@H](O)[C@H]2O)n1` [Ribavirin, reference compound], the “D1 + V” value (influenza virus (H1N1); MTT absorbance percentage vs mock control, […], dosage 9.37 μg/mL, MDCK cells, H1N1) is reported as “+++ (>75≦100 as +++)”.

In the case of `CC(C)=CCc1c(O)cc2oc(-c3ccc(O)cc3)c(O)c(=O)c2c1O` [SOFL-EM-8-6C, licoflavonol], the Response ([1]; dosage 0.05 mg/mL) is reported as “Inhibition”, the “FU/min (neuraminidase enzymatic activity in presence of medicament)” value (“FU/min” for short) ([1]; dosage 0.05 mg/mL) is reported as 0.13 FU/min and the Response ([1]; dosage 0.5 mg/mL) is reported as “Inhibition”. For the same compound, the “FU/min” value ([1]; dosage 0.5 mg/mL) was 0.02 FU/min, the “activity relative to that of Tamiflu” value [1] was “two-fold” and the cell survival rate (influenza virus (H1N1); D1+V: infecting with virus one hour after pretreatment with test drug, 10 μg/mL) was “up to 100%”. For the same compound, the cell survival rate (influenza virus (H1N1); DV: cells treated simultaneously with test drug and virus, 10 μg/mL) was 75%, the DV (influenza virus (H1N1); MTT absorbance percentage vs mock control, cells treated simultaneously with test drug and virus, dosage 10 μg/mL, MDCK cells, H1N1) was “+++ (>75≦100 as +++)” and the “V1 + D” value (influenza virus (H1N1); MTT absorbance percentage vs mock control, test drug added one hour after adsorption of virus on cell, dosage 10 μg/mL, MDCK cells, H1N1) was “++++ (>100 as ++++)”. The “D1 + V” value (influenza virus (H1N1); MTT absorbance percentage vs mock control, virus infection one hour after pretreatment with test drug, dosage 10 μg/mL, MDCK cells, H1N1) was “++++ (>100 as ++++)” and the cell survival rate (influenza virus (H1N1); V1+D: test drug added one hour after adsorption of virus on cell, 10 μg/mL) was 100%.

`O=c1c(O)c(-c2ccc(O)cc2)oc2cc(O)cc(O)c12` [SOFL-EM-8-6S, kaempferol] was tested, and the Response ([1]; dosage 0.5 mg/mL) was “Inhibition”, the “FU/min” value ([1]; dosage 0.5 mg/mL) was 0.06 FU/min and the “activity relative to that of Tamiflu” value [1] was “six-fold”. For the same compound, the D [2] was “++++ (key: absorbance percentage≦25 was recorded as +/−; >25≦50 recorded as +; >50≦75 as ++; >75≦100 as +++; >100 as ++++)”, the cell survival rate (influenza virus (H1N1); D1+V: infecting with virus one hour after pretreatment with test drug, 18.75 μg/mL) was “up to 75%” and the “D1 + V” value (influenza virus (H1N1); MTT absorbance percentage vs mock control, virus infection one hour after pretreatment with test drug, dosage 18.75 μg/mL, MDCK cells, H1N1) was “+++ (>75≦100 as +++)”.

In the case of `CCOC(=O)C1=C[C@@H](OC(CC)CC)[C@H](NC(C)=O)[C@@H](N)C1` [Tamiflu, reference compound], the Response ([1]; dosage 0.5 mg/mL) is reported as “Inhibition” and the “FU/min” value ([1]; dosage 0.5 mg/mL) is reported as 0.01 FU/min.

Reference: patent US20080152735A1, “Herbal Extract Having Anti- Influenza Virus Activity and Preparation of Same” (NATIONAL DEFENSE MEDICAL CENTER, priority 2006, published 2008)
